Reference: patent publication US5093256A, “Essentially purified, thermostable and alkalophilic lipase from Bacillus Sp. A30-1 ATCC 53841” (priority 1989, dated 1992)
Where two headings read alike, the source gives them in different places.

Test system: Bacillus sp. A30-1 ATCC No. 53841 thermostable lipase
Conditions: 30° C., peroxide removed by dialysis before assay; for residual activity (of the original activity) after incubation with hydrogen peroxide: 0.5% hydrogen peroxide
Procedure: Lipase production was routinely assayed by monitoring the fatty acid released from corn oil. The assay is based on the fact that the dye Rhodamine 6G in benzene solution reacts with an acid to form a chromophore which can be spectrophotometrically quantified. One tenth mL of cell free culture broth (obtained by removing cells by centrifugation) was mixed with 0.02 mL of a 25% corn oil solution in 100 mM Tris-Hcl buffer (pH 9.5) and then incubated at 60° C. for 1 hr. After appropriate time the reaction was stopped with the addition of 0.1N HCl in 95% ethanol. The resulting fatty acids were extracted with petroleum ether, and evaporated to dryness under vacuum. Subsequently, diluted Rhodamine 6G stock solution was added. After fifteen minutes at room temperature the absorbance of the resulting reaction mixture was read at 515 nm. One unit of lipase is defined as the amount that will liberate 1 μmole of fatty acid per hour under the assay condition.
To an aliquot of enzyme solution containing a known amount of activity, different amounts of hydrogen peroxide were added to final concentration of 0.5, 1, 2, and 4% respectively. These were kept at 30° C. for different periods of time. Then hydrogen peroxide contained in enzyme solution was eliminated by dialysis against water. Residual activities were measured by the analytical methods described above.

In the case of `OO` [hydrogen peroxide], the “residual activity (of the original activity) after incubation with hydrogen peroxide” value (1 hr) is reported as 100%, the “residual activity (of the original activity) after incubation with hydrogen peroxide” value (19 hrs) is reported as 60% and the “residual activity after incubation with hydrogen peroxide” value (4% hydrogen peroxide, 5 hrs) is reported as 75%.
